Results reported in patent publication US10280218B2, “Antibodies binding to BMP4, and uses thereof” (ACADEMISCH MEDISCH CENTRUM, priority 2014, dated 2019).

Key:
Assay in all cases: BMP activity luciferase reporter assay (BRE-luciferase, ID1 promoter) in C2C12 cells
human BMP4 = assay type: cell-based, mouse; conditions: VHH 500 ng/ml; LDN 0.5 μM; DMH1 0.2 μM
Description: One of the most studied BMP target genes is the Inhibitor of Differentiation 1 (ID1). This is an immediate early gene that is activated by binding of the phosphorylated SMADs to its promoter region (López-Rovira et al., 2002). Thus, we employed the BMP-responsive C2C12 cells, which are stably transfected with the BRE-luciferase vector containing the BMP-Responsive-Element (the mouse ID1 promoter) cloned into the pGL3 luciferase vector (Zilberberg 2007). […] C2C12 cells were treated with the different BMPs with or without our VHHs or human Noggin at a concentration of 5 μg/ml. Luciferase activity was measured after 16 hours incubation. Most of the transcriptional data is in concordance with the results obtained with the phosphorylation of SMAD1/5/8.
C2C12 cells were plated in 96-well plates at 5×10^3 cells/well and cells were allowed to attach overnight. 100 μl of DMEM with 0.1% BSA were added in each well. VHH antibodies and human Fc-Noggin at the indicated concentrations were added at the same time. Wells with unstimulated cells were added as controls. Cells were treated in triplicate with the BMPs at the indicated concentrations for 16 hours. Luciferase activity was measured by adding 100 μl of luciferase substrate solution from the Bright-Glo™ Luciferase Assay System (Promega Benelux, Leiden, The Netherlands). After 3 minutes of incubation, luciferase activity was measured with Synergy HT Multi-Mode Microplate Reader (Biotek, Winooski, Vt., United States). Luciferase values were normalized to background activity (activity of wells with no cells) and represented as ratio to the activity of BMP-stimulated cells.
To evaluate the extent of this increase in potency, the IC50 of the different VHHs were determined in a dose-dependent inhibition assay in C2C12 cells (FIG. 25). C2C12 cells were plated in 96-well plates at 5×10^3 cells/well and cells were allowed to attach overnight 100 μl of DMEM with 0.1% BSA were added in each well. VHH antibodies were added at the indicated concentrations at the same time as 5 ng/ml BMP4 (FIG. 25A-B, D) or 50 ng/ml of BMP2 (FIG. 25C,D). Luciferase activity was measured after 16 hours. Values are represented as ratio to the activity of BMP-stimulated cells. […] However, its effects were more striking for BMP2 rather than BMP4 inhibition. […] The IC50 values for BMP4 inhibition observed in our VHHs are considerably lower than those observed for anti-BMP4 commercially available from R&D (Katagiri et al 1994) and those described in WO_2008/030611.
(§1) C2C12 cells were cultured in 96-well plates at 5×10^3 cells/well. After overnight attachment cells were stimulated with 10 ng/ml hBMP4 (Cat No. 314-BP-020; R&D Systems), 50 ng/ml hBMP2 (Cat No. 355-BM-010; R&D Systems), 200 ng/ml hBMP5 (Cat No. 615-BMC-020; R&D Systems), 50 ng/ml hBMP6 (Cat No. 506-BP-020; R&D Systems), 200 ng/ml hBMP7 (Cat No. 354-BP-010; R&D Systems), 25 ng/ml hBMP9 (Cat No. 3209-BP-010; R&D Systems), 25 ng/ml hBMP10 (Cat No. 2926-BP-025; R&D Systems), 50 ng/ml hBMP12 (Cat No. 779-G7-010; R&D Systems) and with or without VHH antibodies: C4C4 and C8C8 at 500 ng/ml; natural antagonist: mNoggin (Cat No. 1967-NG-025; R&D Systems), hNoggin (Cat No. 6057-NG; R&D Systems) and mGremlin (cat#956-GR-050; R&D Systems) at 500 ng/ml; chemical antagonist: 0.5 μM LDN-193189 (Cat No. 11802; Cayman Chemical) and 0.2 μM DMH1 (Cat No. 57146; Selleckchem).
VHH efficacy was evaluated by stimulating cells with 10 ng/ml of hBMP4 and 50 ng/ml of hBMP2, with and without increase concentrations (from 0.1-10 μg/ml) of VHH and anti-BMP4 antibodies: clone 66119, clone 3H2, clone M912262, clone PA354-16.1.1, Clone EPR6211, and anti-BMP4 (ab39973). […] Unstimulated cells were used as controls and wells with no cells used to normalize the background activity. […]

BMP10 = assay type: cell-based, human; conditions: 25 ng/ml hBMP10, 16 h; LDN 0.5 μM; DMH1 0.2 μM
Description: (§2) C2C12 cells were plated in 96-well plates when they reached confluency, cells were treated in triplicate with 25 ng/ml of BMP9, 50 ng/ml of BMP10 or 50 ng/ml of BMP12 (all from R&D Systems), for 16 hours. VHHs or Noggin were added at a concentration of 5 ug/ml. C2C12 cells or HEK293 were plated on 12-well plates and starved for 5 hours, before stimulation with 2 ng/ml of TGF-β (R&D Systems) or 100 ng/ml Activin-A (R&D Systems), respectively. VHHs at the indicated concentrations were added at the same time. After 1 hour cells were lysed, and protein isolation and SDS-PAGE separation were performed as described previously. For protein detection the following antibodies were used: antiphospho-SMAD2 at 1:1000 (Cell Signaling).
C2C12 cells were cultured in 96-well plates at 5×10^3 cells/well. […]

BMP9 = assay type: cell-based, mouse; conditions: 25 ng/ml hBMP9, 16 h; LDN 0.5 μM; DMH1 0.2 μM
Description: as §2, §1

Compound | specificity / selectivity across BMP2, 4, 5, 6, 7, 9, 10, 12 (human BMP4) | inhibition of BMP-10-derived signals, comparison of inhibitors (BMP10) | inhibition of BMP-9-derived signals, comparison of inhibitors (BMP9)
c1ccc2c(-c3cnn4cc(-c5ccc(N6CCNCC6)cc5)cnc34)ccnc2c1 [LDN, LDN-193189] | even less selective than Noggin | shown to inhibit | shown to inhibit
CC(C)Oc1ccc(-c2cnc3c(-c4ccnc5ccccc45)cnn3c2)cc1 [DMH1] | even less selective than Noggin | shown to inhibit | shown to inhibit
